Experimental data as given in PubChem BioAssay AID2124 (Sanford-Burnham Center for Chemical Genomics, 2009).
Records with an inconclusive call do not appear. Active and inactive are the calls of the source. The rule behind the calls is not given here; tested in MIN6 cells.

Test: cell-permeable autofluorescent compounds in GFP channel, dose response, artefact control, imaging, high-content imaging (AID 2124);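 note: cells exposed to compound for 48 hours before fixing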
Conditions: cells, GFP-channel autofluorescence, high-content imaging, at 10 µM; for z-score: stronger effect = higher value

CCOC(=O)COc1ccc(C(=O)NC2CCCCC2)cc1
z-score: -0.38 (inactive) | cell count: 3240 cells

CCOC(=O)c1sc(NC(=O)c2sccc2C)cc1C
z-score: -0.39 (inactive) | cell count: 3300 cells

C=CCN1C(=O)/C(=C/C=C2/N(CC)c3ccc(S(=O)(=O)N(C)C)cc3N2CC)SC1=S
z-score: 0.26 | cell count: 2740 cells

N#C/C(=C\C1=C(N2CCOCC2)C(=C\c2ccc(Cl)cc2)/CC1)C(=O)Nc1ccccc1F
z-score: -0.24 (inactive) | cell count: 3010 cells

COc1ccc(C(=O)N(CN2CCCC2=O)c2ccc(C)cc2)cc1
z-score: -0.33 (inactive) | cell count: 3380 cells

CCCC1C2CN(C(C)C)CC=C2C(C#N)=C(N)C1(C#N)C#N (stereo not drawn)
z-score: 0.45 | cell count: 2800 cells

COC(=O)C1=C(N)n2c(s/c(=C\c3cccnc3)c2=O)=C(C(=O)OC)C1c1cccnc1 (stereo not drawn)
z-score: -0.25 (inactive) | cell count: 2640 cells

CN(C)c1ccc(/C=C2\SC(=O)N(CCc3nnc(N)s3)C2=O)cc1
z-score: -0.3 (inactive) | cell count: 3290 cells

CN(c1cccc(Cl)c1)S(=O)(=O)c1cccc(C(=O)NC2=NCCS2)c1
z-score: -0.33 (inactive) | cell count: 3260 cells

CCOC(=O)c1c(-c2ccc(C)cc2)csc1NC(=O)/C(C#N)=C/c1ccc(O)c(OC)c1
z-score: -0.3 (inactive) | cell count: 2890 cells

O=C(CSc1nc2ccc(Cl)cc2o1)NCc1ccc2c(c1)OCO2
z-score: -0.33 (inactive) | cell count: 3140 cells

O=Nc1c(O)n(Cc2ccc(Cl)cc2)c2ccccc12
z-score: -0.33 (inactive) | cell count: 3420 cells

NC(=O)c1cc2ccc(O)cc2oc1=NCc1ccccc1
z-score: -0.33 (inactive) | cell count: 3140 cells

Cc1cc(N2C(=O)c3ccccc3C2=O)n(C)n1
z-score: -0.39 (inactive) | cell count: 2960 cells

Cc1ccc(N=C2NC(=O)/C(=C/c3cn(C)c4ccccc34)S2)cc1C
z-score: -0.23 (inactive) | cell count: 2580 cells

Cc1cccc(-c2ncc(CN3CCCC(CO)(Cc4ccccc4C)C3)cn2)c1 (stereo not drawn)
z-score: -0.35 (inactive) | cell count: 3340 cells

C=CCNC(=O)C1CC2Cn3c(nc4cc5ccccc5cc43)C2N1C (stereo not drawn)
z-score: -0.39 (inactive) | cell count: 3390 cells

CCCCN(C)C1=CC2=CC(=C(C#N)C#N)CCC2CC1 (stereo not drawn)
z-score: 11.3 | cell count: 3120 cells

COc1ccc(C(=O)Nn2cnnc2)cc1OC
z-score: -0.39 (inactive) | cell count: 2930 cells

O=c1ccc(NS(=O)(=O)c2ccccc2)cn1Cc1ccc(Cl)c(Cl)c1
z-score: -0.38 (inactive) | cell count: 3280 cells

Cc1ccc(NC(=O)CCn2cccc2)cc1Cl
z-score: -0.33 (inactive) | cell count: 3190 cells

CC(C)CNC(=O)CSc1nnc(-c2cccc(S(=O)(=O)N3CCCCC3)c2)o1
z-score: -0.39 (inactive) | cell count: 2900 cells

COc1cc(OC)c(OC)cc1/C=C1\Oc2cc(OS(C)(=O)=O)ccc2C1=O
z-score: -0.24 (inactive) | cell count: 3060 cells

Cc1cc2nc3c(=O)n(Cc4ccccc4)c(=O)[nH]c3nc2cc1N
z-score: -0.33 (inactive) | cell count: 2710 cells

CC1CCc2c(sc3nn[nH]c(=O)c23)C1 (stereo not drawn)
z-score: -0.33 (inactive) | cell count: 2750 cells

Fc1ccc(C2NCCn3cccc32)cc1 (stereo not drawn)
z-score: -0.38 (inactive) | cell count: 2950 cells

O=C(O)CC12CSc3[nH]c(=O)sc3C1c1ccccc1OC2=O (stereo not drawn)
z-score: -0.33 (inactive) | cell count: 3020 cells

CCN(CC)c1ccc(C(=O)N/N=C/c2ccc(N3CCOCC3)cc2)cc1
z-score: -0.37 (inactive) | cell count: 3040 cells

CCOC(=O)N1CCN(C(=O)c2cc(S(=O)(=O)N3CCCC3)cn2C)CC1
z-score: -0.33 (inactive) | cell count: 3250 cells

CNC(=S)NNC(=O)c1oc2nc(-c3ccccc3)cc(-c3ccco3)c2c1N
z-score: -0.3 (inactive) | cell count: 2940 cells

Cc1noc(/C=C/c2ccc(-c3ccccc3Cl)o2)c1[N+](=O)[O-]
z-score: 0.5 | cell count: 3160 cells

Cc1cc(NC(=O)/C(C#N)=C/c2ccc(-c3ccc(SC(F)F)cc3)o2)n(-c2ccccc2)n1
z-score: 0.3 | cell count: 2190 cells

CCn1cc(C(=O)NCCN(C)CCc2ccccc2)c(=O)c2cc(S(=O)(=O)N(C)C)ccc21
z-score: -0.33 (inactive) | cell count: 3360 cells

N/C(=N\OC(=O)C1CCCCC1)c1cccc([N+](=O)[O-])c1
z-score: -0.33 (inactive) | cell count: 3090 cells

O=C(Nc1nnc(-c2ccccc2)o1)Nc1ccccc1Cl
z-score: -0.39 (inactive) | cell count: 2750 cells

CC(NC(=O)/C(C#N)=C1\N=C(NC(=O)c2ccco2)c2ccccc21)c1ccccc1 (stereo not drawn)
z-score: -0.32 (inactive) | cell count: 2760 cells

COc1cc2cc(C)c3nnc(SCC(=O)Nc4cc(C)on4)n3c2cc1OC
z-score: -0.33 (inactive) | cell count: 2840 cells

O=c1[nH]c2ccccc2nc1/C=C/c1ccc(F)cc1
z-score: -0.32 (inactive) | cell count: 3060 cells

CCCCN1C(=O)/C(=C/C=C2/CC(C)(C)CN2C)SC1=S
z-score: 0.43 | cell count: 2800 cells
